For two compounds, IC50 results are on record in BindingDB's records for patent US20250042903 (H. Lee Moffitt Cancer Center and Research Institute, 2025).

For this assay, the target named is Cyclin-dependent kinase 12 (Homo sapiens, UniProt Q9NYV4). The experiment in a line: Not found.
Text: Not found

Cyclin-dependent kinase 12, sequence (Q9NYV4 whole entry): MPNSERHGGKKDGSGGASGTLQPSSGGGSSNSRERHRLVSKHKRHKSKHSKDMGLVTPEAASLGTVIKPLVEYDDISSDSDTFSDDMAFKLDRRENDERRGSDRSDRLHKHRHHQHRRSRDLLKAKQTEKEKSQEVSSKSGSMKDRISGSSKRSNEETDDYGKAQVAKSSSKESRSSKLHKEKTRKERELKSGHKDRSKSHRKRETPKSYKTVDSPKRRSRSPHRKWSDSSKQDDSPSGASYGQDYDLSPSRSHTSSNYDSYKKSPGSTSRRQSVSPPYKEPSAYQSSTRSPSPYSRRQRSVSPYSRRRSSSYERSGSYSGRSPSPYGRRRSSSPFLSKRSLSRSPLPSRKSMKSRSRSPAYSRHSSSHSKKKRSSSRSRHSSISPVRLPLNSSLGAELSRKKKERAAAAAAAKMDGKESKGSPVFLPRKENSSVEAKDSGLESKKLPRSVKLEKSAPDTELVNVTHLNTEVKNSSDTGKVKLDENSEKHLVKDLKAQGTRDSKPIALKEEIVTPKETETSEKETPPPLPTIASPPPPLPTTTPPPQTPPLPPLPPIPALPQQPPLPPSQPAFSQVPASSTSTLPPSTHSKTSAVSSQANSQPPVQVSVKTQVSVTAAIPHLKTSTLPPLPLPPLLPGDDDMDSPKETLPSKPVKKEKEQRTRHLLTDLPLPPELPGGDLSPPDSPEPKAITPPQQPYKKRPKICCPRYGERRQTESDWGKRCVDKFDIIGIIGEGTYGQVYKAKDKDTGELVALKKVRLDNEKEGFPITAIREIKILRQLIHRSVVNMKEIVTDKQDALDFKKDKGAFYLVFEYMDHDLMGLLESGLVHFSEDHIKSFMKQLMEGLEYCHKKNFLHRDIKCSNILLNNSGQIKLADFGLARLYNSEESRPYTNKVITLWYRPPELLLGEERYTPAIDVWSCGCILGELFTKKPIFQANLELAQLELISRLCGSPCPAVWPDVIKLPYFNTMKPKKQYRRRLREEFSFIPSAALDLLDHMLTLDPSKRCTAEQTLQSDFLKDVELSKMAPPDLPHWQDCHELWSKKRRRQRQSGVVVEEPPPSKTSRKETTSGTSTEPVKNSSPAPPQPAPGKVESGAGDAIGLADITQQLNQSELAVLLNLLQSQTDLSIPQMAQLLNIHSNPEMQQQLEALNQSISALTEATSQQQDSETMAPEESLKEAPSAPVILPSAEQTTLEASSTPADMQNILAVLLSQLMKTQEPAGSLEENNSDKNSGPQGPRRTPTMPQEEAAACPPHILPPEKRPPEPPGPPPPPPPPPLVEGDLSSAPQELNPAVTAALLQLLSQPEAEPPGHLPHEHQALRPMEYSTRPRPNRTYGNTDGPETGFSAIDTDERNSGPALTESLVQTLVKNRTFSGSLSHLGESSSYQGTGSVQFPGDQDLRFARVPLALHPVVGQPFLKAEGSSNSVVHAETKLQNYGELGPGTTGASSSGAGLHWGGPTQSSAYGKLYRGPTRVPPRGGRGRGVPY

Take `FC(F)N1CC(C2C=NN3C(NCc4nc5cc(Cl)c(Cl)cc5[nH]4)=NC(N4CCOCC4)=NC23)C=N1` (configuration not stated) [US20250042903, Compound 2]: the half-maximal inhibitory concentration (IC50) was found to be 262 nM.

Compound `CN1CC(C2C=NN3C(NCc4nc5cc(Cl)c(Cl)cc5[nH]4)=NC(N4CCOCC4)=NC23)C=N1` (configuration not stated) [US20250042903, Compound 1] came in with an IC50 of 554 nM.

In general, IC50 refers to the concentration needed to halve the response being measured. High values mean weaker potency, low ones greater potency.
